Consider two compounds from patent EP2420245A1, “Therapeutic use of agonists or antagonists of bradykinin receptor 1 or 2, for modulation collateral blood vessel growth” (MAX-DELBRÜCK-CENTRUM FÜR MOLEKULARE MEDIZIN, priority 2010, dated 2012).

For data set [1] the following is noted: relative to the natural ligand Lys-desArg-bradykinin; cited from earlier work.
The test system of data set [2] is 3-vessel occlusion (3-VO) cerebral arteriogenesis model in rat. In words: 3-vessel occlusion (3-VO) cerebral arteriogenesis model: collateral growth / diameter of the posterior cerebral artery (postmortem latex perfusion). The format is in vivo. As to conditions: rat 3-VO model, antagonist treatment, 3 weeks post 3-VO (Figure 5). On the procedure:
Pharmacological modulation of arteriogenesis was analysed using a 3 vessel occlusion (3-VO) model for cerebral arteriogenesis in the rat (Occlusion of both vertebral arteries and one carotid artery). Upon occlusion of three of four blood-supplying arteries to the brain, blood flow is redistributed by the recruitment of collateral pathways such as the posterior cerebral artery to supply the hypoperfusion area with blood. The 3-VO model in the rat has been established since 2003 and is acknowledged as a hypoperfusion model for testing cerebral arteriogenesis (Busch, Buschmann et al. 2003). By using the 3-VO model, relevant therapeutic stimulation of arteriogenesis was shown for instance by the application of GM-CSF (Buschmann, Circulation 2003).
Either by inhibition or stimulation of the bradykinin receptor signalling pathways, arteriogenesis was determined and physiological parameters of the brain were tested.
The characterisation of arteriogenesis was carried out via measurement of the artery or blood vessel diameter (posterior cerebral artery - PCA) in addition to via a measurement of the cerebrovascular reactivity (perfusion reserves in the brain). Cerebrovascular anatomy was studied after maximal vasodilation by a modification of the postmortem latex perfusion method of Maeda et al (Maeda, Hata et al. 1998) .

On to `CNCC(=O)N[C@@H](CCCNC(=N)N)C(=O)N1CCC[C@H]1C(=O)N1CCC[C@H]1C(=O)NCC(=O)N[C@@H](Cc1ccccc1)C(=O)N[C@@H](CO)C(=O)N1CCC[C@H]1C(=O)N[C@H](Cc1ccccc1)C(=O)O` [R838, Sar-[D-Phe]des-Arg^9-bradykinin], for which the susceptibility toward proteolysis entry in data set [1] is “lower”. In the case of (Des-Arg^9, Leu^8)-bradykinin [H1960], in data set [2], the “arteriogenesis (collateral growth)” value is recorded as “inhibited”.
